Experimental data reported in patent US5362634A, “Process for producing A83543 compounds” (DowElanco, priority 1991, dated 1994).
Like-named read-outs stand apart in the source and are kept apart here.

Assays:
[1] = test system: adult stable fly; experiment: Insecticidal assay in blood of sheep challenged with Haemonchus contortus, adult stable fly; type: in vivo; parameters: mortality: dose or concentration left out as unconfirmed; details: Stomoxys calcitrans, read-out: Percent Insecticide Mortality; for mortality at 1 mg/kg: iv, 1 × 1 mg/kg IV
Procedure: Blood is drawn from the guinea pigs at 30 minutes except as noted, and the samples of blood are centrifuged. Dental wicks are saturated with the blood serum, and then exposed in Petri dishes to adult stable flies; blow fly larvae are exposed in test tubes. After 24 and 48 hours, the insects are examined, and the number of dead are counted. The results of the tests are recorded as the percent of the insects which are killed.
Tests are carried out in sheep using the test method described supra in the Guinea Pig Test description. […]
^b Amount (mg/kg) times number of doses administered
^c Times postadministration at which blood is drawn

[2] = test system: adult stable fly (ASF); experiment: In vitro efficacy, exposure of ASF to chemically added serum samples; details: Stomoxys calcitrans, read-out: Percent insect mortality
Excerpt: ^1 Percent insect mortality following 24 to 48 hrs. in vitro exposure
to chemically added serum samples

[3] = test system: SAW (Southern armyworm); experiment: Greenhouse test against SAW; type: in vivo; details: Spodoptera eridania, squash
Procedure: Each test compound was formulated by dissolving the compound in an acetone/alcohol (1:1) mixture containing 23 g of "Toximul R" (sulfonate/nonionic emulsifier blend) and 13 g of "Toximul S" (sulfonate/nonionic emulsifier blend) per liter. These mixtures were then diluted with water to give the indicated concentrations.
Two-spotted spider mites (Tetranychus urticae Koch) and cotton or melon aphids (Aphis gossypii Glover) were introduced on squash cotyledons and allowed to establish on both leaf surfaces. Other plants in the same treatment pot were left uninfested. The leaves were then sprayed with 5 mL of test solution using a DeVilbiss atomizing sprayer at 10 psi. Both surfaces of the leaves were covered until runoff and then allowed to dry for one hour. Two uninfested leaves were then excised and placed into a Petri dish containing Southern armyworm (Spodoptera eridania Cramer).
After standard exposure periods, percent mortality was evaluated.

[4] = 0 h, Day 0, A, 24-hour exposure
[5] = 0 h, Day 0, A, 48-hour exposure
[6] = 24 h, Day 1, A, 24-hour exposure
[7] = 24 h, Day 1, A, 48-hour exposure
[8] = 48 h, Day 2, A, 24-hour exposure
[9] = 72 h, Day 3, A, 24-hour exposure
[10] = 72 h, Day 3, A, 48-hour exposure
[11] = 120 h, Day 5, A, 48-hour exposure

SMILES: CC[C@H]1CCC[C@H](O[C@H]2CC[C@H](N(C)C)[C@@H](C)O2)[C@@H](C)C(=O)C2=C[C@@H]3[C@@H](C=C[C@@H]4C[C@@H](O[C@@H]5O[C@@H](C)[C@H](OC)[C@@H](OC)[C@H]5OC)C[C@@H]34)[C@@H]2CC(=O)O1 [A83543A]
- mortality [1, 4]: 0%
- mortality [1, 5]: 0%
- mortality ([1]; 5 h, A, 24-hour exposure): 10%
- mortality ([1]; 24 h, 35 min, A, 24-hour exposure): 10%
- mortality ([1]; 24 h, 5 hr, A, 24-hour exposure): 10%
- mortality ([1]; 24 h, Day 0, A, 24-hour exposure): 0%
- mortality [1, 6]: 10%
- mortality at 50 mg/kg [1, 6]: 0%
- mortality [1, 7]: 90%
- mortality at 50 mg/kg [1, 7]: 60%
- mortality at 2 mg/kg ([1]; 48 h, 25 × 2 mg/kg IR, Day 2, A, 24-hour exposure): 20%
- mortality [1, 8]: 20%
- mortality [1, 9]: 0%
- mortality [1, 10]: 70%
- mortality [1, 11]: 30%
- mortality at 50 mg/kg ([1]; ip, 0 h, Day 0, A, 48-hour exposure): 20%
- mortality at 50 mg/kg ([1]; ip, 35 min, A, 48-hour exposure): 0%
- mortality at 50 mg/kg ([1]; ip, 5 h, A, 48-hour exposure): 10%
- mortality at 50 mg/kg ([1]; ip, 24 h, 35 min, A, 24-hour exposure): 0%
- mortality at 50 mg/kg ([1]; ip, 24 h, 5 hr, A, 24-hour exposure): 0%
- mortality at 50 mg/kg ([1]; ip, 24 h, Day 0, A, 24-hour exposure): 0%
- mortality at 50 mg/kg ([1]; ip, 24 h, Day 1, A, 24-hour exposure): 0%
- mortality at 50 mg/kg ([1]; ip, 24 h, Day 1, A, 48-hour exposure): 0%
- mortality at 50 mg/kg ([1]; ip, 24 h, Day 2, A, 24-hour exposure): 10%
- mortality at 50 mg/kg ([1]; ip, 24 h, Day 3, A, 24-hour exposure): 0%
- mortality at 50 mg/kg ([1]; ip, 24 h, Day 4, A, 24-hour exposure): 10%
- mortality at 50 mg/kg ([1]; ip, 24 h, Day 5, A, 24-hour exposure): 0%
- mortality at 50 mg/kg ([1]; ip, 48 h, Day 2, A, 48-hour exposure): 30%
- mortality at 50 mg/kg ([1]; ip, 72 h, Day 3, A, 48-hour exposure): 10%
- mortality at 50 mg/kg ([1]; ip, 96 h, Day 4, A, 48-hour exposure): 20%
- mortality at 50 mg/kg ([1]; ip, 120 h, Day 5, A, 48-hour exposure): 0%
- mortality at 1 mg/kg [1, 4]: 0%
- mortality at 1 mg/kg [1, 5]: 0%
- mortality at 1 mg/kg ([1]; 35 min, 35 min, A, 24-hour exposure): 10%
- mortality at 1 mg/kg ([1]; 35 min, 35 min, A, 48-hour exposure): 10%
- mortality at 1 mg/kg ([1]; 5 h, 5 hr, A, 24-hour exposure): 0%
- mortality at 1 mg/kg ([1]; 5 h, 5 hr, A, 48-hour exposure): 20%
- mortality at 1 mg/kg [1, 6]: 0%
- mortality at 1 mg/kg [1, 7]: 0%
- mortality at 1 mg/kg [1, 8]: 0%
- mortality at 1 mg/kg ([1]; 48 h, Day 2, A, 48-hour exposure): 0%
- mortality at 1 mg/kg [1, 9]: 0%
- mortality at 1 mg/kg [1, 10]: 0%
- mortality at 1 mg/kg ([1]; 96 h, Day 4, A, 24-hour exposure): 0%
- mortality at 1 mg/kg ([1]; 96 h, Day 4, A, 48-hour exposure): 0%
- mortality at 1 mg/kg ([1]; 120 h, Day 5, A, 24-hour exposure): 0%
- mortality at 1 mg/kg [1, 11]: 0%
- mortality at 0.312 ppm ([2]; 24 hr): 0%
- mortality at 0.312 ppm ([2]; 48 hr): 50%
- mortality at 0.625 ppm ([2]; 24 hr): 0%
- mortality at 0.625 ppm ([2]; 48 hr): 70%
- mortality at 1.25 ppm ([2]; 24 hr): 20%
- mortality at 1.25 ppm ([2]; 48 hr): 100%
- mortality at 2.5 ppm ([2]; 24 hr): 30%
- mortality at 2.5 ppm ([2]; 48 hr): 100%
- mortality at 5 ppm ([2]; 24 hr): 50%
- mortality at 5 ppm ([2]; 48 hr): 100%
- mortality at 10 ppm ([2]; 24 hr): 80%
- mortality at 10 ppm ([2]; 48 hr): 100%
- inhibition at 1.9 ppm ([3]; 1.9 ppm): 0%
- inhibition at 3.9 ppm ([3]; 3.9 ppm): 20%
- inhibition at 7.8 ppm ([3]; 7.8 ppm): 20%
- inhibition at 15.63 ppm ([3]; 15.63 ppm): 40%
- inhibition at 31.25 ppm ([3]; 31.25 ppm): 55%
- inhibition at 62.5 ppm ([3]; 62.5 ppm): 100%
- inhibition at 125 ppm ([3]; 125 ppm): 100%
- inhibition at 250 ppm ([3]; 250 ppm): 100%
